In PubChem BioAssay AID330 (DTP/NCI, 2004):
Values joined by “and” are separate entries in the source; they are usually repeats but may differ in a detail not shown here. Identical values can stand only once. Inconclusive results and toxic doses are left out. Rule for the calls: active = survival T/C of 150% or more; inactive = T/C below 125% in these data.

Test system: P388 leukemia ip, CD2F1 mice, survival T/C
Assay: NCI In Vivo Anticancer Drug Screen. Data for tumor model P388 Leukemia (intraperitoneal) in CD2F1 (CDF1) mice
Details: endpoint: median survival time, higher = longer survival
In short: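 Mice carrying the transplanted tumor received test compound or vehicle. Survival was recorded in each group, and the value is the treated-group measurement divided by that of the vehicle-treated control group.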

[1] = dose: 50.0 mg/kg/injection, schedule: Q01DX009 (ip), vehicle: saline with Tween-80
[2] = dose: 200.0 mg/kg/injection, schedule: Q01DX009 (ip), vehicle: saline with Tween-80
[3] = dose: 25.0 mg/kg/injection, schedule: Q01DX009 (ip), vehicle: Klucel (hydroxypropylcellulose) (HPC)
[4] = dose: 50.0 mg/kg/injection, schedule: Q01DX009 (ip), vehicle: Klucel (hydroxypropylcellulose) (HPC)
[5] = dose: 12.5 mg/kg/injection, schedule: Q01DX005 (ip), vehicle: Klucel (hydroxypropylcellulose) (HPC)
[6] = dose: 25.0 mg/kg/injection, schedule: Q01DX005 (ip), vehicle: Klucel (hydroxypropylcellulose) (HPC)

Measured: T/C

Nc1nc(SCc2cccc(Br)c2)c2ncn(C3OC(CO)C(O)C3O)c2n1 (stereo unspecified)
inactive: [1] 109 % of control | dose: 66.0 mg/kg/injection, schedule: Q01DX009 (ip), vehicle: saline with Tween-80 100 % of control | [2] 104 % of control

N#CC(c1ccc(Cl)cc1)C(c1ccccc1)c1ccccc1 (stereo unspecified)
inactive: [1] 112 % of control | dose: 100.0 mg/kg/injection, schedule: Q01DX009 (ip), vehicle: saline with Tween-80 107 % of control | [2] 112 % of control

CC(=O)/C=C(\C)NCCN/C(C)=C/C(C)=O
inactive: dose: 60.0 mg/kg/injection, schedule: Q01DX005 (ip), vehicle: saline 101 % of control | dose: 120.0 mg/kg/injection, schedule: Q01DX005 (ip), vehicle: saline 98 % of control | dose: 240.0 mg/kg/injection, schedule: Q01DX005 (ip), vehicle: saline 98 % of control

OCCCN1CNC(=S)NC1
inactive: dose: 12.5 mg/kg/injection, schedule: Q01DX009 (ip), vehicle: saline 106 % of control and 111 % of control | dose: 25.0 mg/kg/injection, schedule: Q01DX009 (ip), vehicle: saline 100 % of control and 105 % of control | dose: 50.0 mg/kg/injection, schedule: Q01DX009 (ip), vehicle: saline 100 % of control and 97 % of control | dose: 100.0 mg/kg/injection, schedule: Q01DX009 (ip), vehicle: saline 99 % of control and 102 % of control

N#CCCN(CCC#N)C(CCC(=O)O)C(=O)O (stereo unspecified)
inactive: dose: 50.0 mg/kg/injection, schedule: Q01DX005 (ip), vehicle: saline 93 % of control | dose: 100.0 mg/kg/injection, schedule: Q01DX005 (ip), vehicle: saline 100 % of control | dose: 200.0 mg/kg/injection, schedule: Q01DX005 (ip), vehicle: saline 101 % of control

[Cu+2].[NH-]CC(=O)NC(Cc1ccccc1)C(=O)O.[NH-]CC(=O)NC(Cc1ccccc1)C(=O)O (stereo unspecified)
inactive: dose: 12.5 mg/kg/injection, schedule: Q04DX003 (ip), vehicle: saline 93 % of control | dose: 25.0 mg/kg/injection, schedule: Q04DX003 (ip), vehicle: saline 90 % of control | dose: 50.0 mg/kg/injection, schedule: Q04DX003 (ip), vehicle: saline 100 % of control

O=C(O)CC(CSCP(=O)(O)O)C(=O)O (stereo unspecified)
inactive: dose: 50.0 mg/kg/injection, schedule: Q01DX005 (ip), vehicle: suspension in saline 102 % of control | dose: 100.0 mg/kg/injection, schedule: Q01DX005 (ip), vehicle: suspension in saline 91 % of control | dose: 200.0 mg/kg/injection, schedule: Q01DX005 (ip), vehicle: suspension in saline 89 % of control

O=C1OCC/C1=C\c1ccco1
inactive: dose: 50.0 mg/kg/injection, schedule: Q01DX005 (ip), vehicle: acetone 119 % of control | dose: 100.0 mg/kg/injection, schedule: Q01DX005 (ip), vehicle: acetone 103 % of control

CN(C)c1ccc(/C=C/c2ccnc3ccccc23)cc1N
inactive: dose: 6.25 mg/kg/injection, schedule: Q01DX009 (ip), vehicle: Klucel (hydroxypropylcellulose) (HPC) 98 % of control | dose: 12.5 mg/kg/injection, schedule: Q01DX009 (ip), vehicle: Klucel (hydroxypropylcellulose) (HPC) 93 % of control | [3] 90 % of control | [4] 109 % of control

CC12OC(c3ccccc3)C(C)(OC1c1ccccc1)O2 (stereo unspecified)
inactive: dose: 60.0 mg/kg/injection, schedule: Q01DX005 (ip), vehicle: Klucel (hydroxypropylcellulose) (HPC) 102 % of control | dose: 120.0 mg/kg/injection, schedule: Q01DX005 (ip), vehicle: Klucel (hydroxypropylcellulose) (HPC) 100 % of control | dose: 240.0 mg/kg/injection, schedule: Q01DX005 (ip), vehicle: Klucel (hydroxypropylcellulose) (HPC) 98 % of control

COc1ccc(N2C(=O)c3ccc4c5ccc6c7c(ccc(c8ccc(c3c48)C2=O)c75)C(=O)NC6=O)cc1
inactive: [5] 89 % of control | [6] 90 % of control | dose: 50.0 mg/kg/injection, schedule: Q01DX005 (ip), vehicle: Klucel (hydroxypropylcellulose) (HPC) 90 % of control | dose: 100.0 mg/kg/injection, schedule: Q01DX005 (ip), vehicle: Klucel (hydroxypropylcellulose) (HPC) 90 % of control | dose: 200.0 mg/kg/injection, schedule: Q01DX005 (ip), vehicle: Klucel (hydroxypropylcellulose) (HPC) 89 % of control

CCC(c1ccc(OC(=O)Cc2ccc(N(CCCl)CCCl)cc2)cc1)C(CC)c1ccc(OC(=O)Cc2ccc(N(CCCl)CCCl)cc2)cc1 (stereo unspecified)
inactive: dose: 80.0 mg/kg/injection, schedule: Q01DX009 (ip), vehicle: saline with Tween-80 92 % of control | dose: 120.0 mg/kg/injection, schedule: Q01DX009 (ip), vehicle: saline with Tween-80 93 % of control | dose: 180.0 mg/kg/injection, schedule: Q01DX009 (ip), vehicle: saline with Tween-80 89 % of control | dose: 270.0 mg/kg/injection, schedule: Q01DX009 (ip), vehicle: saline with Tween-80 90 % of control | dose: 405.0 mg/kg/injection, schedule: Q01DX009 (ip), vehicle: saline with Tween-80 92 % of control

O=C(O)c1c(Cl)c(Cl)c(Cl)c(Cl)c1C(=O)Nc1ccc2cn[nH]c2c1
inactive: dose: 50.0 mg/kg/injection, schedule: Q01DX009 (ip), vehicle: saline + alcohol 101 % of control | dose: 100.0 mg/kg/injection, schedule: Q01DX009 (ip), vehicle: saline + alcohol 100 % of control

[Ni+2].[O-]/C(=N\N=C\c1ccccn1)c1ccccc1O.[O-]/C(=N\N=C\c1ccccn1)c1ccccc1O
inactive: dose: 50.0 mg/kg/injection, schedule: Q04DX002 (ip), vehicle: saline with Tween-80 98 % of control | dose: 100.0 mg/kg/injection, schedule: Q04DX002 (ip), vehicle: saline with Tween-80 101 % of control | dose: 200.0 mg/kg/injection, schedule: Q04DX002 (ip), vehicle: saline with Tween-80 89 % of control

COc1nc(N)c([N+](=O)[O-])c(C(Br)Br)n1
inactive: dose: 6.25 mg/kg/injection, schedule: Q01DX005 (ip), vehicle: Klucel (hydroxypropylcellulose) (HPC) 104 % of control | [5] 100 % of control | [6] 91 % of control

CN(C)c1ccc2c(Oc3ccccc3)cc(N)nc2c1
inactive: dose: 50.0 mg/kg/injection, schedule: Q01DX005 (ip), vehicle: saline with Tween-80 94 % of control | dose: 100.0 mg/kg/injection, schedule: Q01DX005 (ip), vehicle: saline with Tween-80 92 % of control | dose: 200.0 mg/kg/injection, schedule: Q01DX005 (ip), vehicle: saline with Tween-80 92 % of control

Cc1ccc(-c2cs/c(=N\N=C3/CSC(=O)N3Cc3ccccc3)n2-c2ccc(C)cc2)cc1
inactive: dose: 100.0 mg/kg/injection, schedule: Q04DX002 (ip), vehicle: Klucel (hydroxypropylcellulose) (HPC) 100 % of control | dose: 200.0 mg/kg/injection, schedule: Q04DX002 (ip), vehicle: Klucel (hydroxypropylcellulose) (HPC) 107 % of control | dose: 400.0 mg/kg/injection, schedule: Q04DX002 (ip), vehicle: Klucel (hydroxypropylcellulose) (HPC) 102 % of control

COC(=O)C1(C)C(=O)C=CC2(C)C1CC(O)C1(C)C2C(O)C(O)C2(C)C(c3ccoc3)CC3OC321 (stereo unspecified) (tested in a mixture with another compound)
inactive: dose: 0.75 mg/kg/injection, schedule: Q01DX005 (ip), vehicle: Klucel (hydroxypropylcellulose) (HPC) 102 % of control | dose: 1.5 mg/kg/injection, schedule: Q01DX005 (ip), vehicle: Klucel (hydroxypropylcellulose) (HPC) 96 % of control | dose: 3.0 mg/kg/injection, schedule: Q01DX005 (ip), vehicle: Klucel (hydroxypropylcellulose) (HPC) 96 % of control | dose: 6.0 mg/kg/injection, schedule: Q01DX005 (ip), vehicle: Klucel (hydroxypropylcellulose) (HPC) 99 % of control | dose: 12.0 mg/kg/injection, schedule: Q01DX005 (ip), vehicle: Klucel (hydroxypropylcellulose) (HPC) 103 % of control

OC(CNC1CC2CCC1C2)COc1cccc2ccccc12 (stereo unspecified)
inactive: [3] 107 % of control | [4] 107 % of control | dose: 100.0 mg/kg/injection, schedule: Q01DX009 (ip), vehicle: Klucel (hydroxypropylcellulose) (HPC) 110 % of control

O=[N+]([O-])c1ccc(S(=O)(=O)Cc2ccccc2)c2nonc12
inactive: dose: 3.12 mg/kg/injection, schedule: Q01DX009 (ip), vehicle: saline with Tween-80 99 % of control | dose: 6.25 mg/kg/injection, schedule: Q01DX009 (ip), vehicle: saline with Tween-80 107 % of control | dose: 12.5 mg/kg/injection, schedule: Q01DX009 (ip), vehicle: saline with Tween-80 100 % of control
